# Values quoted from earlier work, collected in patent US10765664B2, “Treatment of infectious diseases” (CHILDREN'S MEDICAL CENTER CORPORATION, priority 2015, dated 2020).
# Tested on: nonreplicating MTb
# Conditions: extremely high inocula; cited from earlier work
compound,measurement,value
"CC(=O)Oc1ccccc1C(=O)Nc1ncc([N+](=O)[O-])s1 [NTZ, [2-[(5-nitro-1,3-thiazol-2-yl)carbamoyl]phenyl] ethanoate]",resistance mutants,no evidence of resistance mutants
